From patent publication US7615527B2, “Peptides which modulate blood coagulation and methods of use thereof” (Oregon Health & Science University, priority 2001, dated 2009)
Ends that are not written are not given here.

Columns and labels:
[1] = system: platelet aggregation in platelet-rich plasma; experiment: Platelet aggregometry assay (PAP-4) in platelet-rich plasma; assay type: cell-based; conditions: for Platelet aggregation Slope, ADP / Platelet aggregation Extent, ADP: 2 μM ADP; for Platelet aggregation Slope, ADP: 0 mM: 47; for Platelet aggregation Extent, ADP / Platelet aggregation Extent, Epinephrine: 0 mM: 83%; for Platelet aggregation Slope, Epinephrine / Platelet aggregation Extent, Epinephrine: 10 μg/ml epinephrine; for Platelet aggregation Slope, Epinephrine: 0 mM: 24; for Platelet aggregation Slope, Arachidonic Acid / Platelet aggregation Extent, Arachidonic Acid: 0.5 mg/ml arachidonic acid; for Platelet aggregation Slope, Arachidonic Acid: 0 mM: 32; for Platelet aggregation Extent, Arachidonic Acid: 0 mM: 82%; for Platelet aggregation Extent, Thrombin / Platelet aggregation Slope, Thrombin: 0.2 units/ml thrombin; for Platelet aggregation Extent, Thrombin: 0 mM: 97%; for Platelet aggregation Slope, Thrombin: 0 mM: 113
Method: Reptilase Time Assays. The reptilase time may be used as a control assay to examine the effects of a γ′ peptide. This assay is insensitive to thrombin inhibitors, since reptilase is used to clot fibrinogen rather than thrombin. An LA STA instrument (Diagnostica Stago) may be used to quantitate the effect of the γ′ peptide on the RVV, using the manufacturer's protocol. Briefly, 0-1 mM γ′ peptide or scrambled peptide or 0-10 units/ml unfractionated heparin may be added to 1 ml of normal reference plasma (DVVtroll) and loaded into the LA STA. The LA STA may be used to add Reptilase ST reagent (American Diagnostica) to initiate clotting, and clot formation monitored spectrophotometrically for 65 seconds. […] Platelet Aggregometzy Assays. This assay may be used to test the effects of a γ′ peptide on platelet aggregation in platelet-rich plasma. The activity of a γ′ peptide may be assayed in the presence or absence of epinephrine, ADP, collagen, ristocetin, arachidonic acid, and thrombin. A PAP-4 platelet aggregometer (Bio/Data) was used to quantitate the effect of the γ′ peptide on platelet aggregation, using the manufacturer's protocol. […] Blood was centrifuged for 10 minutes at 1,000×g, to isolate the supernatant of platelet-rich plasma. All experiments were performed within 2 hours of the blood draw. 0-1 mM γ′ peptide or scrambled peptide or 0-10 units/ml unfractionated heparin was added to 450 μl of platelet-rich plasma and loaded into siliconized cuvettes. 50 μl of agonist was added and the absorbance monitored for 6 minutes. The agonists used were 10 μg/ml epinephrine (American Reagent Laboratories), 2 μM ADP (Sigma), 0.5 mg/ml arachidonic acid (Bio/Data), or 0.2 units/ml thrombin. The presence or absence of a bi-phasic response may be determined, which is of particular significance in the presence of epinephrine, ADP, and ristocetin. The length of the lag phase may be determined, which is especially relevant in the presence of collagen. PFA-100 Assays. The effect of the γ′ peptide on platelet function may also be assessed using a Platelet Function Analyzer (PFA-100™, Dade Behring). The PFA-100 instrument measures the closure time of a capillary tube containing whole blood. This assay may be used to advantage to examine the effect of γ′ peptide on platelet function in whole blood in the presence of either of the platelet agonists epinephrine or ADP. Briefly, 0-1 mM γ′ peptide or scrambled peptide or 0-10 units/ml unfractionated heparin may be added to 800 μl of normal reference whole blood from an established control group and loaded into the PFA-100 to measure the closure time. Platelet function may be tested using both a collagen/epinephrine cartridge and a collagen/ADP cartridge
Platelet aggregation assays were performed as described hereinabove. A PAP-4 platelet aggregometer (Bio/Data) was used to quantitate the effect of the γ′ peptide on platelet aggregation, using the manufacturer's protocol.
Blood was centrifuged for 10 minutes at 1,000×g, and the supernatant of platelet-rich plasma was separated. 0-1 mM γ′ peptide was added to 450 μl of platelet-rich plasma and loaded into siliconized cuvettes. 50 μl of agonist was added, and the absorbance was monitored for 6 minutes. The agonists used were 2 μM ADP (Sigma), 0.5 mg/ml arachidonic acid (Bio/Data), 10 μg/ml epinephrine (American Reagent Laboratories), or 0.2 units/ml thrombin.

[2] = system: normal human reference plasma; experiment: Activated partial thromboplastin time (aPTT) assay in human plasma; assay type: biochemical; conditions: 1 mM peptide; reference blood plasma; without peptide 29.0±0.1 seconds
Method: Activated Partial Thromboplastin Time (aPTT) Assay. This anti-coagulation assay was chosen for testing the γ′ peptides due to its sensitivity to heparin-like compounds, its ease of use, and the ability to automate the procedure. An MLA 1600 instrument (Organon Teknika) was used to quantitate the effect of the γ′ peptides on the aPTT, using the manufacturer's protocol. Briefly, 0-1 mM γ′ peptides or 0-10 units/ml unfractionated heparin was added to 50 μl of normal reference plasma (Ortho) and manually loaded into the MLA 1600. The MLA 1600 added SynthASil aPTT reagent (Ortho) to initiate clotting, and clot formation was monitored spectrophotometrically for 106 seconds. […] Prothrombin Time/International Normalized Ratio Assay. This clotting assay is less sensitive to heparin than the aPTT, and may be used to determine if a γ′ peptide is capable of prolonging the prothrombin time (PT) to the same extent as the 3 aPTT. One-stage PT assays may be performed using an MLA 1600 instrument according to the manufacturer's protocol. Briefly, 0-1 mM γ′ peptide or scrambled peptide or 0-10 units/ml unfractionated heparin may be added to 50 μl of normal reference plasma (Ortho) and manually loaded into the MLA 1600. The MLA 1600 may be used to add recombinant thromboplastin (Recombiplastin, Ortho) to initiate clotting, and clot formation monitored spectrophotometrically for 106 seconds. If a clot is not generated within 106 seconds, the MLA will automatically extend the observation time to 212 seconds.
An aPTT assay was performed using human plasma to determine the effect of γ′ peptide on the clotting time in this system. […] The MLA 1600 added SynthASil aPTT reagent (Ortho) to initiate clotting and clot formation was monitored spectrophotometrically for 106 seconds. […]
An aPTT assay was performed using human plasma to determine the effect of γ′ deletion peptides on the clotting time in this system. […] The MLA 1600 added SynthASil aPTT reagent (Ortho) to initiate clotting and clot formation was monitored spectrophotometrically for 106 seconds. […]

PEHPAETEY(*)DSLY(*)PEDDL (PEHPAETEYDSLYPEDDL; not fully specified (residues 9, 13); printed as PEHPAETEY(*)DSLY(*)PEDDL) [γ′ 410-427]
Platelet aggregation Slope, ADP ([1]; 0.125 mM peptide): 43 | Platelet aggregation Extent, ADP ([1]; 0.125 mM peptide): 87% | Platelet aggregation Slope, ADP ([1]; 0.25 mM peptide): 40 | Platelet aggregation Extent, ADP ([1]; 0.25 mM peptide): 86% | Platelet aggregation Slope, ADP ([1]; 0.5 mM peptide): 39 | Platelet aggregation Extent, ADP ([1]; 0.5 mM peptide): 82% | Platelet aggregation Slope, ADP ([1]; 1.0 mM peptide): 32 | Platelet aggregation Extent, ADP ([1]; 1.0 mM peptide): 58% | Platelet aggregation Slope, Epinephrine ([1]; 0.125 mM peptide): 22 | Platelet aggregation Extent, Epinephrine ([1]; 0.125 mM peptide): 84% | Platelet aggregation Slope, Epinephrine ([1]; 0.25 mM peptide): 20 | Platelet aggregation Extent, Epinephrine ([1]; 0.25 mM peptide): 82% | Platelet aggregation Slope, Epinephrine ([1]; 0.5 mM peptide): 16 | Platelet aggregation Extent, Epinephrine ([1]; 0.5 mM peptide): 78% | Platelet aggregation Slope, Epinephrine ([1]; 1.0 mM peptide): 9 | Platelet aggregation Extent, Epinephrine ([1]; 1.0 mM peptide): 43% | Platelet aggregation Slope, Arachidonic Acid ([1]; 0.125 mM peptide): 33 | Platelet aggregation Extent, Arachidonic Acid ([1]; 0.125 mM peptide): 81% | Platelet aggregation Slope, Arachidonic Acid ([1]; 0.25 mM peptide): 35 | Platelet aggregation Extent, Arachidonic Acid ([1]; 0.25 mM peptide): 82% | Platelet aggregation Slope, Arachidonic Acid ([1]; 0.5 mM peptide): 31 | Platelet aggregation Extent, Arachidonic Acid ([1]; 0.5 mM peptide): 83% | Platelet aggregation Slope, Arachidonic Acid ([1]; 1.0 mM peptide): 34 | Platelet aggregation Extent, Arachidonic Acid ([1]; 1.0 mM peptide): 85% | Platelet aggregation Extent, Thrombin ([1]; 0.125 mM peptide): 68% | Platelet aggregation Slope, Thrombin ([1]; 0.125 mM peptide): 70 | Platelet aggregation Extent, Thrombin ([1]; 0.25 mM peptide): 64% | Platelet aggregation Slope, Thrombin ([1]; 0.25 mM peptide): 39 | Platelet aggregation Extent, Thrombin ([1]; 0.5 mM peptide): 93% | Platelet aggregation Slope, Thrombin ([1]; 0.5 mM peptide): 21 | Platelet aggregation Extent, Thrombin ([1]; 1.0 mM peptide): 33% | Platelet aggregation Slope, Thrombin ([1]; 1.0 mM peptide): 10 | Blood clotting time, activated partial thromboplastin assay [2]: 55.1 ± 0.0 s
